What all share (assay type): biochemical
The target of test [1] is T1, γ-secretase (C100FLAG APP-based substrate) (Homo sapiens, UniProt P49768).
T1 construct: made in house; host or cells: S-1 CHO cell line (Chinese hamster ovary)
Description: In vitro γ-secretase assay, C-100 Flag (APP-based substrate) cleavage. As to conditions: effect on C-100 Flag cleavage; compounds tested in vitro at 100 μM. The procedure:
(§1) Purification of γ-Secretase and in Vitro γ-Secretase Assays—The following procedures can be used to isolate γ-secretase and measure its enzymatic activity. The multistep procedure for the high grade purification of human γ-secretase from the S-1 cells is performed as described previously (Fraering, P. C., et al. (2004) Biochemistry 43, 9774-9789). In vitro γ-secretase assays using the recombinant APP-based substrate C100FLAG and the recombinant Notch-based substrate N100FLAG are performed as reported previously (Esler, W. P., Kimberly, W. T., Ostaszewski, B. L., Ye, W., Diehl, T. S., Selkoe, D. J., and Wolfe, M. S. (2002) Proc. Natl. Acad. Sci. U.S.A. 99, 2720-2725, Kimberly, W. T., et al. (2003) Biochemistry 42, 137-144). Basically, the proteolytic reaction mixtures contain C100FLAG and N100FLAG substrate at a concentration of 1 μm, purified γ-secretase solubilized in 0.2% CHAPSO/HEPES, pH 7.5, at 10-fold dilution from stock (stock=the M2 anti-FLAG-eluted fraction in the purification protocol from S-1 cells (Fraering, P. C., et al. (2004) Biochemistry 43, 9774-9789)), 0.025% phosphatidylethanolamine (PE), and 0.10% phosphatidylcholine (PC). All the reactions are stopped by adding 0.5% SDS, and the samples are assayed for Aβ40 and Aβ42 by ELISA as described (Xia, W., Zhang, J., Ostaszewski, B. L., Kimberly, W. T., Seubert, P., Koo, E. H., Shen, J., and Selkoe, D. J. (1998) Biochemistry 37, 16465-16471). The capture antibodies are 2G3 (to Aβ residues 33-40) for the Aβ40 species and 21F12 (to Aβ residues 33-42) for the Aβ42 species.
(§2) Western Blotting and Antibodies—The following assay can be used to determine the extent to which the compounds of interest modulate the cleavage of APP and the Notch receptor. For Western analysis of PS1-NTF, PS1-CTF, Aph1α2-HA, FLAG-Pen-2, and NCT-GST, the samples are run on 4-20% Tris-glycine polyacrylamide gels, transferred to polyvinylidene difluoride, and can be probed with Ab14 (for PS1-NTF, 1:2000; a gift of S. Gandy), 13A11 (for PS1-CTF, 5 μg/ml; a gift of Elan Pharmaceuticals), 3F10 (for Aph1α2-HA, 50 ng/ml; Roche Applied Science), anti-FLAG M2 (for FLAG-Pen-2, 1:1000; Sigma), or αGST antibodies (for NCT-GST, 1:3000; Sigma). Samples from the γ-secretase activity assays (above) are run on 4-20% Tris-glycine gels and can be transferred to polyvinylidene difluoride membranes to detect AICD-FLAG with anti-FLAG M2 antibodies (1:1000, Sigma) and NICD-FLAG with Notch Ab1744 antibody (1:1000, Cell Signaling Technology), which is selective for the N terminus of NICD; the same samples are transferred to nitrocellulose membranes to detect Aβ with the anti-Aβ 6E10 antibody. Levels of AICD-FLAG and NICD-FLAG are estimated by densitometry using AlphaEase/Spot Denso (Alpha Innotech Corp.).
(§3) Naphthyl Amine Alcohol Analogs and Assay Data—Compounds listed in Table 2 may be assayed as described herein (e.g., in Examples 3 and 4) and the specificity may be evaluated by comparing the relative inhibitions of C-100 Flag and N-100 Flag cleavage. The potency of the inhibitor may be evaluated with an Aβ1-40 ELISA assay (e.g., using an Aβ40 ELISA kit available from Invitrogen, Carlsbad, Calif.). […] The following table indicates the properties of certain compounds of the invention that were assayed as described herein. (INH=Inhibits)

The target in test [2] is T2, γ-secretase (N100FLAG Notch-based substrate) (Homo sapiens, UniProt P49768).
T2 construct: made in house; host or cells: S-1 CHO cell line (Chinese hamster ovary)
Nature of the test: In vitro γ-secretase assay, N-100 Flag (Notch-based substrate) cleavage. As to conditions: effect on N-100 Flag cleavage; compounds tested in vitro at 100 μM. The procedure:
as §1, §2, §3

The target of test [3] is T3, γ-secretase (Aβ1-40 production) (Homo sapiens, UniProt P49768).
T3 construct: made in house; host or cells: S-1 CHO cell line (Chinese hamster ovary)
Nature of the test: γ-Secretase assay, Aβ1-40 ELISA. Particulars: 100 μM. The procedure: as §1, §3

Regarding `CC(C)N(CCC(O)c1ccc2ccccc2c1)Cc1cc(F)cc(F)c1` (stereo not drawn) [Example 31], the “γ-Secretase Assay C-100 Flag” value in test [1] is recorded as “Inh”. Also, the “γ-Secretase Assay N-100 Flag” value in test [2] is “Inh”. For the same compound, in test [3], the inhibition (as a rule, the drop in the measured response relative to a control, in per cent) at 100 µM was determined as 54%.

Turning to `CCOc1ccc(NCCC(O)c2ccc3ccccc3c2)cc1` (stereo not drawn) [Example 32], in test [1], the “γ-Secretase Assay C-100 Flag” value was “Inh”. Further, the “γ-Secretase Assay N-100 Flag” value in test [2] is listed as “Inh”. For the same compound, at 100 µM the inhibition in test [3] was 40%.

With `OC(CCNc1ccc(F)c(Cl)c1)c1ccc2ccccc2c1` (stereo not drawn) [Example 33], the “γ-Secretase Assay C-100 Flag” value in test [1] was “Inh”. Moreover, the “γ-Secretase Assay N-100 Flag” value in test [2] is “Inh”. This compound gave an inhibition at 100 µM in test [3] of 40%.

With `CC(C)N(Cc1ccccc1)CC(O)c1ccc2ccccc2c1` (stereo not drawn) [Example 82], the “γ-Secretase Assay C-100 Flag” value in test [1] was “Inh”. Further, the “γ-Secretase Assay N-100 Flag” value in test [2] is “Inh”. The compound further registered an inhibition at 100 µM in test [3] of 0%.

As for `O=[N+]([O-])c1cc(NCCC(O)c2ccc3ccccc3c2)ccc1Cl` (stereo not drawn) [Example 83], the “γ-Secretase Assay C-100 Flag” value in test [1] is “Inh”. For the same compound, the “γ-Secretase Assay N-100 Flag” value in test [2] was “Inh”. In test [3], this compound registered an inhibition at 100 µM of 46%.

Source of the values: patent US20100286164A1, “SUBSTITUTED ARYL ALKYLAMINO-OXY-ANALOGS AND USES THEREOF” (The Brigham and Women's Hospital, Inc, priority 2007, published 2010).
